In PubChem BioAssay (NCI) one finds TGI and GI50 data, which are given here for nine compounds.

The structures appear in SMILES notation.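 Each compound was tested at five concentrations against cells in 96-well plates for 48 hours. GI50 marks 50% less growth. TGI: concentration producing complete growth inhibition.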

Among the test systems are HCT-116 colon; HL-60(TB) leukemia; KM12 colon; RPMI-8226 leukemia; SF-295 CNS; SK-MEL-28 melanoma; SK-OV-3 ovarian; SN12C renal; SNB-75 CNS; TK-10 renal.
Holding throughout (assay): NCI-60 cell line screen, 48 h

In the case of `C/C=C(\C)C(=O)OC1C2C(C)C(=O)OC2C(O)C(C)C2C=CC(=O)C21C` (stereo not given), the TGI with HCT-116 colon is 22.6 µM; in the experiment with HL-60(TB) leukemia, 18.4 µM; in the experiment on KM12 colon, 30.3 µM; in the experiment with RPMI-8226 leukemia it was 32.1 µM; in the experiment with SF-295 CNS it was 32.7 µM; with SK-MEL-28 melanoma it was 28.1 µM. Moreover, the TGI in the experiment on SK-OV-3 ovarian was 39.6 µM; in the experiment on SN12C renal, 43.1 µM; in the experiment with SNB-75 CNS, 43.3 µM; in the experiment on TK-10 renal, 26.9 µM.
Regarding `C=C(CN(C)C)C(=O)c1ccc(OC)cc1`, the TGI in the experiment with HCT-116 colon was 12.8 µM; in the experiment with HL-60(TB) leukemia, 0.631 µM; with KM12 colon, 39.4 µM; in the experiment on RPMI-8226 leukemia, 9.19 µM; in the experiment on SF-295 CNS it was 45.7 µM; with SK-MEL-28 melanoma, 8.63 µM. Besides, the TGI in the experiment on SK-OV-3 ovarian was found to be 41.3 µM; in the experiment with SN12C renal it was 7.1 µM; in the experiment with SNB-75 CNS, 39.9 µM; in the experiment on TK-10 renal it was 7.88 µM.
For `CCC[CH2][Ge]([CH2]CCC)([CH2]CCC)[O]C(=O)C(OC(C)=O)c1ccccc1` (stereo not given), the GI50 in the experiment with HCT-116 colon was 0.139 µM; with HL-60(TB) leukemia, 0.314 µM; with KM12 colon, 2.98 µM; in the experiment on RPMI-8226 leukemia, 0.297 µM; in the experiment on SF-295 CNS, 4.02 µM; in the experiment on SK-MEL-28 melanoma, 8.12 µM. Further, the GI50 in the experiment with SK-OV-3 ovarian was 12.4 µM; in the experiment on SN12C renal it was 7.7 µM; in the experiment with SNB-75 CNS, 0.973 µM; in the experiment with TK-10 renal it was 8.06 µM. For the same compound, the TGI in the experiment with HCT-116 colon was 13.4 µM; in the experiment on HL-60(TB) leukemia, 2.09 µM; in the experiment with KM12 colon it was 22.1 µM; in the experiment on RPMI-8226 leukemia, 4.82 µM; in the experiment with SF-295 CNS, 23.3 µM; with SK-MEL-28 melanoma it was 22.1 µM. Further, the TGI is 55.5 µM in the experiment with SK-OV-3 ovarian, 24.9 µM in the experiment with SN12C renal, 25.2 µM with SNB-75 CNS and 54.3 µM in the experiment on TK-10 renal.
For `O=C(Nc1cccc(-n2cc(-c3ccncc3)c(-c3ccc(O)c(Cl)c3)n2)c1)c1ccc(N2CCOCC2)c(C(F)(F)F)c1`, the GI50 with HCT-116 colon is 2.35 µM; in the experiment with HL-60(TB) leukemia, 1.2 µM; in the experiment on KM12 colon, 1.12 µM; in the experiment on RPMI-8226 leukemia, 1.04 µM; in the experiment on SF-295 CNS it was 1.24 µM; in the experiment on SK-MEL-28 melanoma, 3.75 µM. Besides, the GI50 with SK-OV-3 ovarian is over 50 µM; in the experiment on SN12C renal, over 50 µM; in the experiment with SNB-75 CNS, 0.745 µM; with TK-10 renal, over 50 µM. Besides, the TGI is over 50 µM in the experiment on HCT-116 colon; 3.15 µM with HL-60(TB) leukemia; over 50 µM with KM12 colon; 4.24 µM in the experiment with RPMI-8226 leukemia; 4.32 µM in the experiment on SF-295 CNS; over 50 µM in the experiment with SK-MEL-28 melanoma. The TGI in the experiment on SK-OV-3 ovarian, in the experiment on SN12C renal, in the experiment on SNB-75 CNS and in the experiment with TK-10 renal was over 50 µM throughout.
`C=CCCC(O)c1ccc(CCCCCCCCCCC)o1` (stereo not given): the GI50 with HCT-116 colon was 18 µM; in the experiment with HL-60(TB) leukemia, 39.2 µM; with KM12 colon, 20.6 µM; in the experiment on RPMI-8226 leukemia it was 14 µM; in the experiment with SF-295 CNS, 14.2 µM; in the experiment with SK-MEL-28 melanoma it was 14.9 µM. Further, the GI50 in the experiment with SK-OV-3 ovarian was 16.9 µM; with SN12C renal, 15.6 µM; in the experiment with SNB-75 CNS it was 14.2 µM; with TK-10 renal, 15.8 µM. The TGI in the experiment with HCT-116 colon is 32.2 µM; in the experiment with HL-60(TB) leukemia it was over 100 µM; in the experiment on KM12 colon it was 51 µM; in the experiment with RPMI-8226 leukemia it was 38.6 µM; in the experiment with SF-295 CNS, 30.4 µM; with SK-MEL-28 melanoma it was 29.6 µM. In addition, the TGI stood at 33.8 µM in the experiment with SK-OV-3 ovarian, 29 µM in the experiment with SN12C renal, 28.6 µM with SNB-75 CNS and 31.9 µM in the experiment with TK-10 renal.
Regarding `O=C(O)CP(=O)(c1ccccc1)c1ccccc1.O=C(O)CP(=O)(c1ccccc1)c1ccccc1.[Cd]`, the GI50 in the experiment with HCT-116 colon was 20 µM; in the experiment with HL-60(TB) leukemia, 15.9 µM; with KM12 colon it was 7.97 µM; in the experiment on RPMI-8226 leukemia it was 0.277 µM; in the experiment with SF-295 CNS, 30.5 µM; with SK-MEL-28 melanoma it was 17.9 µM. Further, the GI50 is 20.2 µM with SK-OV-3 ovarian, 16.4 µM with SN12C renal, 16 µM in the experiment with SNB-75 CNS and 16.9 µM in the experiment on TK-10 renal. Moreover, the TGI in the experiment on HCT-116 colon is 47.3 µM; with HL-60(TB) leukemia, 60.7 µM; with KM12 colon it was 22.7 µM; in the experiment with RPMI-8226 leukemia it was 0.991 µM; in the experiment with SF-295 CNS, over 100 µM; with SK-MEL-28 melanoma it was 41.8 µM. Further, the TGI in the experiment on SK-OV-3 ovarian was 44.5 µM; in the experiment on SN12C renal, 31.1 µM; with SNB-75 CNS it was 32.4 µM; in the experiment on TK-10 renal it was 34.5 µM.
On to `Cc1cc(O)c(O)c(Oc2cc(C)cc(O)c2O)c1`, for which the TGI with HCT-116 colon is 41.1 µM; in the experiment on HL-60(TB) leukemia it was 5.54 µM; with KM12 colon, over 100 µM; with RPMI-8226 leukemia, over 100 µM; in the experiment on SF-295 CNS it was 55.7 µM; with SK-MEL-28 melanoma it was over 100 µM. Also, the TGI with SK-OV-3 ovarian is over 100 µM; with SN12C renal, 59.7 µM; in the experiment on SNB-75 CNS it was over 100 µM; with TK-10 renal, 36.3 µM.
On to `O=C(NCCCCCCNC(=O)NC1OCC(O)C(O)C1O)NC1OCC(O)C(O)C1O` (stereo not given), for which the TGI with HCT-116 colon, in the experiment on HL-60(TB) leukemia, with KM12 colon, in the experiment on RPMI-8226 leukemia, in the experiment with SF-295 CNS and with SK-MEL-28 melanoma was over 100 µM throughout. For the same compound, the TGI with SK-OV-3 ovarian, in the experiment on SN12C renal, with SNB-75 CNS and in the experiment with TK-10 renal was over 100 µM throughout.
`Cc1cccc2c1NC(=O)C2(c1ccc(O)cc1)c1ccc(O)cc1`: the GI50 in the experiment on HCT-116 colon is 11.3 µM; in the experiment on HL-60(TB) leukemia, 7.64 µM; with KM12 colon, 3.68 µM; in the experiment with RPMI-8226 leukemia it was 17.9 µM; with SF-295 CNS, 12.6 µM; in the experiment with SK-MEL-28 melanoma it was 16.4 µM. The GI50 with SK-OV-3 ovarian was 19.2 µM; in the experiment with SN12C renal it was under 0.01 µM; in the experiment on SNB-75 CNS, 0.0601 µM; in the experiment on TK-10 renal, 0.0206 µM. Besides, the TGI worked out at 25.5 µM in the experiment on HCT-116 colon; 39.6 µM with HL-60(TB) leukemia; 23.6 µM in the experiment with KM12 colon; 64 µM with RPMI-8226 leukemia; 38.1 µM with SF-295 CNS; 46.5 µM with SK-MEL-28 melanoma. The TGI in the experiment on SK-OV-3 ovarian came out at 42 µM; in the experiment on SN12C renal, 15.4 µM; in the experiment on SNB-75 CNS, 37.5 µM; in the experiment on TK-10 renal it was 39.1 µM.
